In one experiment the target is T1, NLRP3 inflammasome (Mus musculus, UniProt Q8R4B8).
T1 construct: endogenous in cells; host or cells: primary mouse bone marrow-derived dendritic cells (BMDCs), LPS-primed
The experiment can be described thus: IL-1β release from LPS-primed BMDCs (ELISA) as readout of NLRP3 inflammasome activation. It is filed as cell-based. The settings on record: for Average (% positive control): IL-1β release, positive control nigericin 5 μM; for IL-1β: single replicates. The gist of the method:
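NLRP3 inflammasome activation was read out as IL-1β released into the supernatant, measured by ELISA. Murine BMDCs were primed with LPS (50 ng ml^−1, 3 hours), then incubated with compounds for 3 hours, with each condition run in three technical replicates. Nigericin at 5 μM acted as the positive control activator, and IL-1β release was also expressed as a percentage of that control.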
(In general: An ELISA detects its analyte on a solid surface through an enzyme-linked reagent.)

The subject of a further experiment is BMDCs. Description: LDH release (lytic cell death, pyroptosis) from LPS-primed BMDCs. It is filed as cell-based, mouse. The following applies: for Average (% positive control): LDH release, positive control nigericin 5 μM; for cytotoxicity at 50 µM / cytotoxicity at 5 µM: Mus musculus, BMDC. The gist of the method:
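Mouse BMDCs (7-9 days differentiated, GM-CSF) primed with 50 ng ml^−1 E. coli K12 LPS for 3 hours, then exposed 3 hours to compounds (50 μM unless indicated) or activators (nigericin 5 μM; R837, CL097 100 μM). Lytic death measured as LDH release by colorimetric assay, triplicate wells.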
On the technique in general: LDH leaks from cells whose membrane has failed.

The mark [1] stands for this setting: compound 50 μM, LPS-primed BMDCs.
Where [2] appears, read: compound 50 μM, LPS-primed BMDCs, read-out: Average LDH release (% of max.).
Setting [3] is: single replicates, compound 50 μM, LPS-primed BMDCs, read-out: LDH release (% of max.).

We go through 12 molecules from patent US20240277658A1, “NLRP3 ACTIVATORS FOR USE IN THE TREATMENT OF INFECTIOUS DISEASES OR CANCER BY ACTIVATING NLRP3 INFLAMMASOME” (ALBERT-LUDWIGS-UNIVERSITÄT FREIBURG, priority 2020, published 2024).

Several values for one entry are separate records, joined by “and”; a condition that tells them apart may be missing. Equal values may be shown once. Where a name gives a salt, the structure may show the parent alone. Read-outs that look alike come from different tables or passages of the source.

T1 sequence (Q8R4B8 whole entry): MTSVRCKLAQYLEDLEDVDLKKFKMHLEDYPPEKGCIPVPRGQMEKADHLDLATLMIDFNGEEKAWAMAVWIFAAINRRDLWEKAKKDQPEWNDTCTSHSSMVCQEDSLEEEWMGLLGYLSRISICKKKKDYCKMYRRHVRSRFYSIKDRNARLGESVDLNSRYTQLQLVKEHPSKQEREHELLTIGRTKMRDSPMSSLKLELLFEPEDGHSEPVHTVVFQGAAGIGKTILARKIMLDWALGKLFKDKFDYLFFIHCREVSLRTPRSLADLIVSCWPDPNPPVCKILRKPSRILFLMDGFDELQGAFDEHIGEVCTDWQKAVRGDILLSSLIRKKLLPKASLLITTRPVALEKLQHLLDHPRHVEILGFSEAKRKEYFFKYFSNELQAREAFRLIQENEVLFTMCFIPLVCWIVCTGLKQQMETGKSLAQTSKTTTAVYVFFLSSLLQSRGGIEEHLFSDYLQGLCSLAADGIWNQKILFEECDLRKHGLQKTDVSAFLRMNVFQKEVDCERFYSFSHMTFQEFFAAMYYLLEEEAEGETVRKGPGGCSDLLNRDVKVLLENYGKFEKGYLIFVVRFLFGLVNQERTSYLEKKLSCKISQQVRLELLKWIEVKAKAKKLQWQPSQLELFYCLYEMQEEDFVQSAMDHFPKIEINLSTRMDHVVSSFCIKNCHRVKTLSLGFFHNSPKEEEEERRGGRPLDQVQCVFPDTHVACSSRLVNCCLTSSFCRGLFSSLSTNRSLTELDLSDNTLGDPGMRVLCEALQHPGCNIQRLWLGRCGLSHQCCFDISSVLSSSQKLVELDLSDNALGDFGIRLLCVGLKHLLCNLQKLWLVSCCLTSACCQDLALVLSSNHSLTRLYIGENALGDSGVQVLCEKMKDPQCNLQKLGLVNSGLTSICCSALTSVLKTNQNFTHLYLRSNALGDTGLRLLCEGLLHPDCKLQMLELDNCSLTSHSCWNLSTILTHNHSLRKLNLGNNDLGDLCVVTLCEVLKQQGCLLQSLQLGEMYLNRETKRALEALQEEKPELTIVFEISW

Consider `O=C(Nc1ccccc1)Nc1cccc(OC(F)F)c1` [L01.120, 3-[3-(difluoromethoxy)-phenyl]-1-phenylurea], for which the “Average (% positive control)” value is 2.800 % positive control at NLRP3 inflammasome (compound 50 μM) and 33.449 % positive control with BMDCs (compound 50 μM). For the same molecule, the “Average IL-1β” value on NLRP3 inflammasome (setting [1]) worked out at 0.201 ng/mL. For the same molecule, the “IL-1β” value at NLRP3 inflammasome (setting [1]) is 0.207 ng/mL and 0.200 ng/mL and 0.196 ng/mL. The cytotoxicity at 50 µM with BMDCs (setting [2]) came out at 24.5%; with BMDCs (setting [3]), 25%.
For `CN(C)Cc1ccc(NC(=O)Nc2ccccc2)cc1` [L01.121, 3-{4-[(dimethylamino)-methyl]phenyl}-1-phen-ylurea], the entries for the “Average (% positive control)” value on NLRP3 inflammasome (compound 50 μM) and with BMDCs (compound 50 μM) were 0.906 % positive control and 11.907 % positive control, respectively. Also, the “Average IL-1β” value at NLRP3 inflammasome (setting [1]) amounted to 0.065 ng/mL. Further, the “IL-1β” value at NLRP3 inflammasome (setting [1]) was 0.066 ng/mL and 0.068 ng/mL and 0.060 ng/mL. The cytotoxicity at 50 µM worked out at 8.71% in the experiment with BMDCs (setting [2]) and 7.8% in the experiment with BMDCs (setting [3]).
On to `O=C(Nc1ccccc1)Nc1cccc(NC(=O)NC2CC2)c1` [L01.122, 3-cyclopropyl-1-{3-[(phenylcarbamoyl)-amino]phenyl}urea], for which the “Average (% positive control)” value at NLRP3 inflammasome (compound 50 μM) came out at 1.214 % positive control; in the experiment on BMDCs (compound 50 μM), 11.054 % positive control. Besides, on NLRP3 inflammasome (setting [1]), the “Average IL-1β” value was determined as 0.087 ng/mL. For the same molecule, the “IL-1β” value on NLRP3 inflammasome (setting [1]) was 0.072 ng/mL and 0.093 ng/mL and 0.095 ng/mL. Also, the cytotoxicity at 50 µM with BMDCs (setting [2]) came to 8.09%; with BMDCs (setting [3]), 9.16%.
For the molecule `Cc1ccc(NC(=O)Nc2ccccc2)cc1F` [L01.124, 3-(3-fluoro-4-methyl-phenyl)-1-phenylurea], the figures for the “Average (% positive control)” value at NLRP3 inflammasome (compound 50 μM) and in the experiment on BMDCs (compound 50 μM) were 13.268 % positive control and 19.235 % positive control, respectively. In addition, the “Average IL-1β” value on NLRP3 inflammasome (setting [1]) worked out at 0.951 ng/mL. The “IL-1β” value at NLRP3 inflammasome (setting [1]) was 0.928 ng/mL and 0.902 ng/mL and 1.024 ng/mL. In addition, the cytotoxicity at 50 µM in the experiment on BMDCs (setting [2]) and with BMDCs (setting [3]) was 14.1% each time.
Take `COc1ccc(NC(=O)NCc2nc(Cc3ccccc3)no2)cc1` [L01.125, 3-[(3-benzyl-1,2,4-oxadiazol-5-yl)methyl]-1-(4-methoxyphenyl)-urea]: the results for the “Average (% positive control)” value on NLRP3 inflammasome (compound 50 μM) and in the experiment on BMDCs (compound 50 μM) were 0.988 % positive control and 9.397 % positive control, respectively. Also, the “Average IL-1β” value on NLRP3 inflammasome (setting [1]) stood at 0.071 ng/mL. In addition, the “IL-1β” value at NLRP3 inflammasome (setting [1]) is 0.080 ng/mL and 0.071 ng/mL and 0.061 ng/mL. The figures for the cytotoxicity at 50 µM with BMDCs (setting [2]) and in the experiment with BMDCs (setting [3]) were 6.87% and 7.72%, respectively.
On to `Cc1ccc(-c2noc(CN3C(=O)CN(c4ccccc4)C3=O)n2)cc1` [L01.127, 3-{[3-(4-methylphenyl)-1,2,4-oxadiazol-5-yl]-methyl}-1-phenylimid-azolidine-2,4-dione], for which the “Average (% positive control)” value is reported as 6.538 % positive control on NLRP3 inflammasome (compound 50 μM) and 14.301 % positive control in the experiment on BMDCs (compound 50 μM). In addition, the “Average IL-1β” value at NLRP3 inflammasome (setting [1]) stood at 0.469 ng/mL. The “IL-1β” value on NLRP3 inflammasome (setting [1]) was 0.490 ng/mL and 0.475 ng/mL and 0.441 ng/mL. The values for the cytotoxicity at 50 µM in the experiment with BMDCs (setting [2]) and in the experiment with BMDCs (setting [3]) were 10.5% and 11%, respectively.
As for `CN1C(=O)c2ccc(NC(=O)Nc3ccccc3)cc2C1=O` [L01.128, 3-(2-methyl-1,3-dioxo-2,3-dihydro-1H-iso-indol-5-yl)-1-phenyl-urea], the “Average (% positive control)” value at NLRP3 inflammasome (compound 50 μM) was found to be 5.819 % positive control; in the experiment with BMDCs (compound 50 μM), 16.086 % positive control. The “Average IL-1β” value at NLRP3 inflammasome (setting [1]) turned out to be 0.417 ng/mL. Besides, at NLRP3 inflammasome (setting [1]), the “IL-1β” value is 0.456 ng/mL and 0.394 ng/mL and 0.402 ng/mL. Also, the cytotoxicity at 50 µM amounted to 11.8% in the experiment on BMDCs (setting [2]) and 12.1% in the experiment on BMDCs (setting [3]).
`Cc1ccc(N2C(=O)N(Cc3nc(-c4ccc(F)cc4)no3)C(=O)C2C)cc1` (centres unmarked) [L01.130, 3-{[3-(4-fluorophenyl)-1,2,4-oxadiazol-5-yl]-methyl}-5-methyl-1-(4-methylphenyl)imidazol-idine-2,4-dione]: the “Average (% positive control)” value on NLRP3 inflammasome (compound 50 μM) is 4.350 % positive control; in the experiment on BMDCs (compound 50 μM), 11.646 % positive control. Also, on NLRP3 inflammasome (setting [1]), the “Average IL-1β” value worked out at 0.312 ng/mL. Further, the “IL-1β” value on NLRP3 inflammasome (setting [1]) is 0.404 ng/mL and 0.317 ng/mL and 0.215 ng/mL. For the same molecule, the cytotoxicity at 50 µM with BMDCs (setting [2]) was 8.52%; with BMDCs (setting [3]), 9.39%.
In the case of `CNC(=O)NCc1cccc(NC(=O)Nc2ccccc2)c1` [L01.132, 3-(3-{[(methylcarbamo-yl)amino]methyl}phen-yl)-1-phenylurea], the “Average (% positive control)” value on NLRP3 inflammasome (compound 50 μM) turned out to be 0.920 % positive control; in the experiment on BMDCs (compound 50 μM) it was 8.791 % positive control. Moreover, the “Average IL-1β” value on NLRP3 inflammasome (setting [1]) was found to be 0.066 ng/mL. The “IL-1β” value at NLRP3 inflammasome (setting [1]) is 0.062 ng/mL and 0.066 ng/mL and 0.069 ng/mL. Also, the cytotoxicity at 50 µM in the experiment with BMDCs (setting [2]) came out at 6.43%; in the experiment on BMDCs (setting [3]), 6.46%.
For the molecule `CCCCOC(=O)c1ccc(NC(=O)NC(CC(C)C)c2nc(-c3nnc[nH]3)no2)cc1` (centres unmarked) [L01.135, butyl 4-[{{3-methyl-1-[3-(4H-1,2,4-triazol-3-yl)-1,2,4-oxadiazol-5-yl]-butyl}carbamoyl)amino]-benzoate], the “Average (% positive control)” value came out at 0.975 % positive control at NLRP3 inflammasome (compound 50 μM) and 11.085 % positive control in the experiment on BMDCs (compound 50 μM). The “Average IL-1β” value at NLRP3 inflammasome (setting [1]) came out at 0.070 ng/mL. Also, the “IL-1β” value at NLRP3 inflammasome (setting [1]) is 0.079 ng/mL and 0.073 ng/mL and 0.057 ng/mL. In addition, the cytotoxicity at 50 µM came to 8.11% with BMDCs (setting [2]) and 8.89% in the experiment on BMDCs (setting [3]).
With `COc1cccc(NC(=O)N(C)Cc2nc(-c3cccnc3)no2)c1` [L01.136, 1-(3-methoxyphenyl)-3-methyl-3-{[3-(pyridin-3-yl)-1,2,4-oxadiazol-5-yl]methyl}urea], the “Average (% positive control)” value was 1.025 % positive control on NLRP3 inflammasome (compound 50 μM) and 9.465 % positive control in the experiment on BMDCs (compound 50 μM). Also, the “Average IL-1β” value on NLRP3 inflammasome (setting [1]) is 0.073 ng/mL. In addition, the “IL-1β” value on NLRP3 inflammasome (setting [1]) was 0.064 ng/mL and 0.073 ng/mL and 0.083 ng/mL. For the same molecule, the cytotoxicity at 50 µM in the experiment on BMDCs (setting [2]) amounted to 6.92%; in the experiment with BMDCs (setting [3]), 6.95%.
For `CO[C@@H]1C[C@@H](C[C@H]2CC[C@H](C)[C@H]([C@@H](C)C(=O)O)O2)O[C@]2(O[C@](C)([C@H]3CC[C@@](C)([C@@H]4O[C@@H]([C@H]5O[C@@](O)(CO)[C@H](C)C[C@@H]5C)C[C@@H]4C)O3)C[C@H]2C)[C@@H]1C` [Nigericin, Nigericin sodium salt, reference compound], the “Average IL-1β” value at NLRP3 inflammasome (5 μM, LPS-primed BMDCs) turned out to be 7.168 ng/mL; on NLRP3 inflammasome (section 1.3, 5 μM), 3.151 ng/mL. Besides, the “Average (% positive control)” value on NLRP3 inflammasome (5 μM) was 100.000 % positive control; on NLRP3 inflammasome (section 1.3, 5 μM), 100.000 % positive control; in the experiment on BMDCs (5 μM) it was 100.000 % positive control; with BMDCs (section 1.3, 5 μM), 100.000 % positive control. Besides, the “IL-1β” value was 3.007 ng/mL and 3.127 ng/mL and 3.318 ng/mL on NLRP3 inflammasome (section 1.3, 5 μM, sodium salt); 6.834 ng/mL and 6.400 ng/mL and 7.872 ng/mL and 6.518 ng/mL and 7.890 ng/mL and 7.496 ng/mL on NLRP3 inflammasome (5 μM, LPS-primed BMDCs, sodium salt). The cytotoxicity at 5 µM in the experiment on BMDCs (5 μM, LPS-primed BMDCs, read-out: Average LDH release (% of max.)) came to 73.2%; in the experiment on BMDCs (section 1.3, 5 μM, read-out: Average LDH release (% of max.)), 53.7%; in the experiment on BMDCs (single replicates, 5 μM, LPS-primed BMDCs, read-out: LDH release (% of max.)), 61.9%.
